From PubChem BioAssay (NCI)
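The compound was tested at five concentrations on cells cultured in 96-well plates, with a 48-hour exposure period. At the TGI there is no net growth.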

Key:
Test in all cases: NCI anticancer screen, dose series, 48 h
[1] = system: RXF 393 renal
[2] = system: MOLT-4 leukemia
[3] = system: SW-620 colon
[4] = system: HCT-15 colon
[5] = system: UACC-257 melanoma
[6] = system: PC-3 prostate
[7] = system: A498 renal
[8] = system: IGROV1 ovarian
[9] = system: SK-MEL-5 melanoma
[10] = system: HT29 colon
[11] = system: SF-295 CNS
[12] = system: NCI-H522 lung
[13] = system: SF-268 CNS
[14] = system: ACHN renal
[15] = system: NCI/ADR-RES ovarian
[16] = system: LOX IMVI melanoma
[17] = system: COLO 205 colon
[18] = system: A549 NSCLC
[19] = system: NCI-H23 lung
[20] = system: HOP-92 NSCLC
[21] = system: SK-MEL-28 melanoma
[22] = system: HL-60(TB) leukemia
[23] = system: K-562 leukemia
[24] = system: HOP-62 NSCLC
[25] = system: EKVX NSCLC
[26] = system: MDA-MB-231 breast
[27] = system: SNB-75 CNS
[28] = system: MDA-MB-435
[29] = system: NCI-H460 lung
[30] = system: DU-145 prostate
[31] = system: MALME-3M melanoma
[32] = system: SN12C renal
[33] = system: 786-0 renal
[34] = system: UO-31 renal
[35] = system: T-47D breast
[36] = system: BT-549 breast
[37] = system: KM12 colon
[38] = system: RPMI-8226 leukemia
[39] = system: SF-539 CNS
[40] = system: UACC-62 melanoma
[41] = system: OVCAR-3 ovarian
[42] = system: TK-10 renal
[43] = system: SK-OV-3 ovarian
[44] = system: MDA-N
[45] = system: U251 CNS
[46] = system: OVCAR-8 ovarian
[47] = system: OVCAR-5 ovarian
[48] = system: NCI-H226 lung
[49] = system: SR leukemia
[50] = system: HCT-116 colon
[51] = system: HS 578T breast
[52] = system: OVCAR-4 ovarian
[53] = system: MCF7 breast
[54] = system: CCRF-CEM leukemia
[55] = system: CAKI-1 renal
[56] = system: SK-MEL-2 melanoma
[57] = system: SNB-19 CNS
[58] = system: M14 melanoma

Molecule `COC(=O)c1c2c(cc3c1CC1(Cc4ccc(C(C)=O)cc4C1)C3)CCC2` (configuration not stated) has a TGI [1] of 80 µM, a TGI [2] of 86.5 µM and a TGI [3] greater than 100 µM. For the same molecule, the TGI [4] was greater than 100 µM, the TGI [5] was greater than 100 µM and the TGI [6] was 82.2 µM. The TGI [7] was greater than 100 µM, the TGI [8] was greater than 100 µM and the TGI [9] was 45.4 µM. The TGI [10] was 89 µM, the TGI [11] was greater than 100 µM and the TGI [12] was greater than 100 µM. For the same molecule, the TGI [13] was greater than 100 µM, the TGI [14] was greater than 100 µM and the TGI [15] was greater than 100 µM. The TGI [16] was 60.2 µM, the TGI [17] was greater than 100 µM and the TGI [18] was greater than 100 µM. For the same molecule, the TGI [19] was greater than 100 µM, the TGI [20] was greater than 100 µM and the TGI [21] was greater than 100 µM. The TGI [22] was greater than 100 µM, the TGI [23] was greater than 100 µM and the TGI [24] was greater than 100 µM. For the same molecule, the TGI [25] was greater than 100 µM, the TGI [26] was greater than 100 µM and the TGI [27] was greater than 100 µM. The TGI [28] was 50.8 µM, the TGI [29] was greater than 100 µM and the TGI [30] was greater than 100 µM. It also gave a TGI [31] of 61.9 µM, a TGI [32] greater than 100 µM and a TGI [33] greater than 100 µM. The TGI [34] was greater than 100 µM, the TGI [35] was greater than 100 µM and the TGI [36] was greater than 100 µM. The TGI [37] was greater than 100 µM, the TGI [38] was greater than 100 µM and the TGI [39] was greater than 100 µM. For the same molecule, the TGI [40] was greater than 100 µM, the TGI [41] was greater than 100 µM and the TGI [42] was greater than 100 µM. For the same molecule, the TGI [43] was greater than 100 µM, the TGI [44] was 28.5 µM and the TGI [45] was greater than 100 µM. The TGI [46] was greater than 100 µM, the TGI [47] was greater than 100 µM and the TGI [48] was greater than 100 µM. It also gave a TGI [49] greater than 100 µM, a TGI [50] greater than 100 µM and a TGI [51] of 80.7 µM. It also gave a TGI [52] greater than 100 µM, a TGI [53] greater than 100 µM and a TGI [54] greater than 100 µM. For the same molecule, the TGI [55] was greater than 100 µM.

`O=c1oc2cc(N=Cc3ccc4c(c3)OCO4)ccc2c2ccccc12` showed a TGI [1] of 67.2 µM, a TGI [2] greater than 100 µM and a TGI [3] greater than 100 µM. It also gave a TGI [4] greater than 100 µM, a TGI [56] greater than 100 µM and a TGI [5] greater than 100 µM. The TGI [6] was greater than 100 µM, the TGI [7] was greater than 100 µM and the TGI [8] was greater than 100 µM. It also gave a TGI [9] greater than 100 µM, a TGI [10] greater than 100 µM and a TGI [11] greater than 100 µM. For the same molecule, the TGI [12] was greater than 100 µM, the TGI [13] was greater than 100 µM and the TGI [14] was greater than 100 µM. For the same molecule, the TGI [57] was greater than 100 µM, the TGI [15] was greater than 100 µM and the TGI [16] was greater than 100 µM. The TGI [17] was greater than 100 µM, the TGI [18] was greater than 100 µM and the TGI [19] was greater than 100 µM. For the same molecule, the TGI [20] was greater than 100 µM, the TGI [21] was greater than 100 µM and the TGI [22] was greater than 100 µM. It also gave a TGI [23] greater than 100 µM, a TGI [24] greater than 100 µM and a TGI [25] of 50.6 µM. The TGI [26] was greater than 100 µM, the TGI [27] was 39.7 µM and the TGI [28] was greater than 100 µM. For the same molecule, the TGI [29] was greater than 100 µM, the TGI [30] was greater than 100 µM and the TGI [31] was greater than 100 µM. It also gave a TGI [58] greater than 100 µM, a TGI [32] greater than 100 µM and a TGI [33] greater than 100 µM. It also gave a TGI [34] greater than 100 µM, a TGI [35] greater than 100 µM and a TGI [36] greater than 100 µM. The TGI [37] was greater than 100 µM, the TGI [39] was greater than 100 µM and the TGI [40] was greater than 100 µM. For the same molecule, the TGI [41] was greater than 100 µM, the TGI [42] was greater than 100 µM and the TGI [43] was greater than 100 µM. The TGI [44] was greater than 100 µM, the TGI [45] was greater than 100 µM and the TGI [46] was greater than 100 µM. It also gave a TGI [47] greater than 100 µM, a TGI [48] greater than 100 µM and a TGI [49] greater than 100 µM. It also gave a TGI [50] greater than 100 µM, a TGI [51] greater than 100 µM and a TGI [52] greater than 100 µM. The TGI [53] was greater than 100 µM, the TGI [54] was greater than 100 µM and the TGI [55] was greater than 100 µM.
